Measured values from patent US20240252488A1 (KOREA RESEARCH INSTITUTE OF CHEMICAL TECHNOLOGY, priority 2020, published 2024).

Legend:
FADD−/− Jurkat cells = assay: Necroptosis inhibition assay, TNF-α-induced necroptosis (CellTiter-Glo 2.0); type: cell-based, human; details: TNF-α 15 ng/mL; for Necroptosis inhibition assay (Rescue %) 1 μM: compound 1 μM; for Necroptosis inhibition assay (Rescue %) 10 μM: compound 10 μM
Experimental: Necroptosis Inhibition Assay
Necroptosis inhibition was evaluated by the following method.
80 μL of FADD gene-defective human T lymphocyte cells (FADD−/− Jurkat cells) were equally distributed into each well at 5.0×10^5 cells/mL in a white 96-well plate with a transparent bottom. 20 μL of the medium containing test compound was treated in each well so that the final concentration of the compound was 0.1, 1, and 10 μM, and reacted at room temperature for 30 minutes. After the 30-minute reaction was over, TNF (tumor necrosis factor)-α was treated in the corresponding well so that the final concentration of TNF-α was 15 ng/mL in order to induce necroptosis. It was cultured in a 5% CO2, 37° C. incubator for 20 to 24 hours.
After incubation, the 96-well plate was left at room temperature for 30 minutes. After 30 minutes, Promega's CellTiter-Glo 2.0 reagent was diluted 1:3 with PBS and 100 μL of the diluted solution was added to each well to confirm cell viability by measuring the amount of ATP. After the treatment, the plate was shielded from light and incubated at room temperature for 2 minutes with orbital shaking, and then left at room temperature for 10 minutes without shaking. After measuring the luminescence at 0.5 seconds per well using a plate scanner, the cytotoxicity and necroptosis inhibition rate for the compound were calculated using the measured values.

MLKL = molecular target: T1, MLKL (Homo sapiens, UniProt Q8NB16); assay: Measurement of binding affinity with MLKL receptor (competitive binding assay, Kd); design: made in house; host or cells: HEK 293 cell line (T7 phage in E. coli BL21-derived host is also described)
T1 sequence (Q8NB16 1-471): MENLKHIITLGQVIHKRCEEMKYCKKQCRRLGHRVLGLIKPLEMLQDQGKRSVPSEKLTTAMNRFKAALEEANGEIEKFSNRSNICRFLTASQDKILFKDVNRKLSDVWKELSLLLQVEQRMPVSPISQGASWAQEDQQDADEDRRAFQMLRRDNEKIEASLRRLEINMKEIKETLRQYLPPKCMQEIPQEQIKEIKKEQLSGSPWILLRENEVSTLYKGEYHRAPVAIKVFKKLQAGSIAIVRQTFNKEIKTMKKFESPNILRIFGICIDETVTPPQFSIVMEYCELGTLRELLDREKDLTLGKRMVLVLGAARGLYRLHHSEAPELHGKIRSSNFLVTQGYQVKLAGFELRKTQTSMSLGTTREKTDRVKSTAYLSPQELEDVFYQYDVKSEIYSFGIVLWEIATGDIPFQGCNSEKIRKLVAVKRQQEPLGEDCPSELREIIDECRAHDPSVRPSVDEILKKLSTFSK
Experimental: Measurement of Binding Affinity with MLKL Receptor (Competitive Binding Assay)
The binding affinity was evaluated by measuring the Kd value in the following method.
To prepare kinase-tagged T7 phage strains in an E. coli host derived from the BL21 strain, E. coli were grown to log-phase and infected with T7 phage and incubated with shaking at 32° C. until lysis. The lysates were centrifuged and filtered to remove cell debris. For kinase production, it was expressed in human embryonic kidney cell line (HEK 293 cell line), and subsequently tagged with DNA for qPCR detection.
The liganded beads were blocked with excess biotin and washed with blocking buffer (SeaBlock (Pierce), 1% BSA, 0.05% Tween 20, 1 mM DTT) to remove unbound ligand and to reduce non-specific binding. […] Test compounds were prepared as 111× stocks in 100% DMSO.
The compounds were then diluted directly into the assays such that the final concentration of DMSO was 0.9%. All reactions performed in polypropylene 384-well plate. Each was a final volume of 0.02 ml. […] The kinase concentration in the eluates was measured by qPCR.

| SMILES | Necroptosis inhibition assay (Rescue %) 1 μM (FADD−/− Jurkat cells) [%] | Necroptosis inhibition assay (Rescue %) 10 μM (FADD−/− Jurkat cells) [%] | Kd (MLKL) [µM] |
| --- | --- | --- | --- |
| Cc1ncsc1-c1ccc(CNC(=O)[C@@H]2C[C@@H](O)CN2C(=O)[C@@H](NC(=O)CCC(=O)N2CCC(CN3CCC(n4cc(-c5cnc(N)c(C(=O)O[C@@H](C(=O)Nc6ccc(F)cc6)c6ccccc6)n5)cn4)CC3)CC2)C(C)(C)C)cc1 [TDH-212, (R)-2-((4-fluorophenyl)amino)-2-oxo-1-phenylethyl 3-amino-6-(1-(1-((1-(4-(((S)-1-((2S,4R)-4-hydroxy-2-((4-(4-methylthiazol-5-yl)benzyl)carbamoyl)pyrrolidin-1-yl)-3,3-dimethyl-1-oxobutan-2-yl)amino)-4-oxobutanoyl)piperidin-4-yl)methyl)piperidin-4-yl)-1H-pyrazol-4-yl)pyrazine-2-carboxylate] | 24.34 | 49.14 | 0.011 |
| Nc1ncc(-c2cnn(C3CCN(CCCCCCCCCCNC(=O)COc4cccc5c4C(=O)N(C4CCC(=O)NC4=O)C5=O)CC3)c2)nc1C(=O)O[C@@H](C(=O)Nc1ccc(F)cc1)c1ccccc1 (stereo partly drawn) [TDH-163, (R)-2-((4-fluorophenyl)amino)-2-oxo-1-phenylethyl 3-amino-6-(1-(1-(10-(2-((2-(2,6-dioxopiperidin-3-yl)-1,3-dioxoisoindolin-4-yl)oxy)acetamido)decyl)piperidin-4-yl)-1H-pyrazol-4-yl)pyrazine-2-carboxylate] | 30.03 | 28.56 | 0.045 |
| Nc1ncc(C2=CCN(C(=O)COCCOCCNC(=O)CNc3ccc4c(c3)C(=O)N(C3CCC(=O)NC3=O)C4=O)CC2)cc1C(=O)O[C@@H](C(=O)Nc1ccc(F)cc1)c1ccccc1 (stereo partly drawn) [TDH-085, (R)-2-((4-fluorophenyl)amino)-2-oxo-1-phenylethyl 6-amino-1′-(2-(2-(2-(2-((2-(2,6-dioxopiperidin-3-yl)-1,3-dioxoisoindolin-5-yl)amino)acetamido)ethoxy)ethoxy)acetyl)-1′,2′,3′,6′-tetrahydro-[3,4′-bipyridine]-5-carboxylate] | 5.02 | – | 0.012 |
| Nc1ncc(C2=CCN(C(=O)COCCOCCNC(=O)C3CN(c4cccc5c4C(=O)N(C4CCC(=O)NC4=O)C5=O)C3)CC2)cc1C(=O)O[C@@H](C(=O)Nc1ccc(F)cc1)c1ccccc1 (stereo partly drawn) [TDH-086, (R)-2-((4-fluorophenyl)amino)-2-oxo-1-phenylethyl 6-amino-1′-(2-(2-(2-(1-(2-(2,6-dioxopiperidin-3-yl)-1,3-dioxoisoindolin-4-yl)azetidine-3-carboxamido)ethoxy)ethoxy)acetyl)-1′,2′, 3′,6′-tetrahydro-[3,4′-bipyridine]-5-carboxylate] | 2.91 | – | 0.041 |
| Nc1nccnc1C(=O)O[C@H](C(=O)Nc1ccc(F)cc1)c1ccccc1 [TDH-002, (S)-2-((4-fluorophenyl)amino)-2-oxo-1-phenylethyl 3-aminopyrazine-2-carboxylate] | 6.35 | – | > 10 |
| Nc1ncc(-c2cnn(C3CCN(C(=O)COCCOCCNC(=O)C4CN(c5cccc6c5C(=O)N(C5CCC(=O)NC5=O)C6=O)C4)CC3)c2)nc1C(=O)O[C@@H](C(=O)Nc1ccc(F)cc1)c1ccccc1 (stereo partly drawn) [TDH-192, (R)-2-((4-fluorophenyl)amino)-2-oxo-1-phenylethyl 3-amino-6-(1-(1-(2-(2-(2-(1-(2-(2,6-dioxopiperidin-3-yl)-1,3-dioxoisoindolin-4-yl)azetidine-3-carboxamido)ethoxy)ethoxy)acetyl)piperidin-4-yl)-1H-pyrazol-4-yl)pyrazine-2-carboxylate] | 50.37 | 45.32 | 0.0061 |
| Cl.Nc1ncc(-c2cnn(C3CCNCC3)c2)cc1C(=O)O[C@@H](C(=O)Nc1ccc(F)cc1)c1ccccc1 [TDH-112, (R)-2-((4-fluorophenyl)amino)-2-oxo-1-phenylethyl 2-amino-5-(1-(piperidin-4-yl)-1H-pyrazol-4-yl)nicotinate hydrochloride] | 20.24 | – | 0.002 |
| Nc1ncc(-c2cnn(C3CCN(CCCCCCCCCCNc4ccc5c(c4)C(=O)N(C4CCC(=O)NC4=O)C5=O)CC3)c2)nc1C(=O)O[C@@H](C(=O)Nc1ccc(F)cc1)c1ccccc1 (stereo partly drawn) [TDH-160, (R)-2-((4-fluorophenyl)amino)-2-oxo-1-phenylethyl 3-amino-6-(1-(1-(10-((2-(2,6-dioxopiperidin-3-yl)-1,3-dioxoisoindolin-5-yl)amino)decyl)piperidin-4-yl)-1H-pyrazol-4-yl)pyrazine-2-carboxylate] | 3.59 | – | 0.0094 |
| Nc1ncc(-c2ccc(N3CCN(CC4CCN(C(=O)C5CCN(c6ccc7c(c6)C(=O)N(C6CCC(=O)NC6=O)C7=O)CC5)CC4)CC3)nc2)nc1C(=O)OC(C(=O)Nc1ccc(F)cc1)c1ccccc1 (stereo not drawn) [TDH-231, 2-((4-fluorophenyl)amino)-2-oxo-1-phenylethyl 3-amino-6-(6-(4-((1-(1-(2-(2,6-dioxopiperidin-3-yl)-1,3-dioxoisoindolin-5-yl)piperidine-4-carbonyl)piperidin-4-yl)methyl)piperazin-1-yl)pyridin-3-yl)pyrazine-2-carboxylate] | 15.47 | 11.4 | 0.14 |
| Nc1ncc(C2=CCN(C(=O)CCCCCNc3ccc4c(c3)C(=O)N(C3CCC(=O)NC3=O)C4=O)CC2)cc1C(=O)O[C@@H](C(=O)Nc1ccc(F)cc1)c1ccccc1 (stereo partly drawn) [TDH-075, (R)-2-((4-fluorophenyl)amino)-2-oxo-1-phenylethyl 6-amino-1′-(6-((2-(2,6-dioxopiperidin-3-yl)-1,3-dioxoisoindolin-5-yl)amino)hexanoyl)-1′,2′,3′,6′-tetrahydro-[3,4′-bipyridine]-5-carboxylate] | 10.02 | 9.05 | 0.14 |
| Nc1ncc(-c2cn(C3CCN(CC4CCN(C(=O)C5CCN(c6ccc7c(c6)C(=O)N(C6CCC(=O)NC6=O)C7=O)CC5)CC4)CC3)nn2)nc1C(=O)OC(C(=O)Nc1ccc(F)cc1)c1ccccc1 (stereo not drawn) [TDH-221, 2-((4-fluorophenyl)amino)-2-oxo-1-phenylethyl 3-amino-6-(1-(1-((1-(1-(2-(2,6-dioxopiperidin-3-yl)-1,3-dioxoisoindolin-5-yl)piperidine-4-carbonyl)piperidin-4-yl)methyl)piperidin-4-yl)-1H-1,2,3-triazol-4-yl)pyrazine-2-carboxylate] | 53.65 | 54.23 | 0.027 |
| Nc1ncc(-c2cnn(C3CCN(C(=O)CCCCCNC(=O)CNc4ccc5c(c4)C(=O)N(C4CCC(=O)NC4=O)C5=O)CC3)c2)nc1C(=O)O[C@@H](C(=O)Nc1ccc(F)cc1)c1ccccc1 (stereo partly drawn) [TDH-123, (R)-2-((4-fluorophenyl)amino)-2-oxo-1-phenylethyl 3-amino-6-(1-(1-(6-(2-((2-(2,6-dioxopiperidin-3-yl)-1,3-dioxoisoindolin-5-yl)amino)acetamido)hexanoyl)piperidin-4-yl)-1H-pyrazol-4-yl)pyrazine-2-carboxylate] | 8.69 | 8.92 | 0.00089 |
| Cl.Nc1ncc(-c2cnn(C3CCNCC3)c2)nc1C(=O)N[C@@H](C(=O)Nc1ccc(F)cc1)c1ccccc1 [TDH-099, (R)-3-amino-N-(2-((4-fluorophenyl)amino)-2-oxo-1-phenylethyl)-6-(1-(piperidin-4-yl)-1H-pyrazol-4-yl)pyrazine-2-carboxamide hydrochloride] | 18.18 | – | 0.011 |
